This is an account of results in ChEMBL document CHEMBL1201862, “PubChem BioAssay data set” (2004).

The structures appear in SMILES notation.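 Test compounds were applied to cells in 96-well plates for 48 hours at 5 doses. Here, GI50 denotes the concentration required for 50% inhibition of growth.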 Calls of active or inactive are those of the source. Rule as the data show it: active = GI50 up to about 1.1 µM and inactive = higher. Bounds are passed on as bounds.

What all share (test): NCI-60 cell line screen, 48 h
Test [1] concerns UO-31.
Test [2] concerns OVCAR-4.
Test [3] relates to SNB-19.
The subject of test [4] is SNB-75.
The test system of test [5] is NCI-H226.
Test [6] deals with HCT-15.
The subject of test [7] is UACC-257.
For test [8], the system named is MOLT-4.
For test [9], the system named is OVCAR-8.
Test [10] has as its system SK-MEL-28.
Test [11] concerns LOX IMVI.
In test [12] the test system is Malme-3M.
In test [13] the test system is SF-295.
The subject of test [14] is T47D.
The test system of test [15] is DU-145.
For test [16], the system named is U-251.
Test [17] relates to COLO 205.
In test [18] the test system is Hs-578T.
For test [19], the system named is SF-268.
The test system of test [20] is SN12C.

Take `CC(C)[Si](CC1=CCCCC12C(=O)N(COCC[Si](C)(C)C)c1ccccc12)(C(C)C)C(C)C` (stereo not given): the GI50 is > 100 µM (inactive) in test [1]; > 100 µM (inactive) in test [2]; 66.5 µM (inactive) in test [3]; > 100 µM (inactive) in test [4]; > 100 µM (inactive) in test [5]; above 100 µM in test [6]. In addition, the GI50 is 37.6 µM (inactive) in test [7]; > 100 µM (inactive) in test [8]; 89.3 µM (inactive) in [9]; 92.5 µM (inactive) in test [10]; 29.2 µM (inactive) in [11]; > 100 µM (inactive) in test [12]. In addition, the GI50 in [13] is 31.1 µM (inactive); in [14] it was 33.7 µM (inactive); in test [15], 66.7 µM (inactive); in test [16], > 100 µM (inactive); in test [17] it was > 100 µM (inactive); in test [18] it was > 100 µM (inactive). Besides, in test [19], the GI50 is > 100 µM (inactive).
For `C/C=N\n1c(C)c(C#N)c(C#N)c1N`, the GI50 in test [1], in test [2], in test [20], in test [3], in test [4] and in [5] was > 100 µM (inactive) throughout. The GI50 was above 100 µM in [6]; > 100 µM (inactive) in [7]; > 100 µM (inactive) in test [8]; > 100 µM (inactive) in test [9]; > 100 µM (inactive) in [11]; > 100 µM (inactive) in test [12]. The GI50 in test [13], in test [14], in [15], in test [16], in [17] and in test [18] was > 100 µM (inactive) throughout. Further, the GI50 in [19] was > 100 µM (inactive).
With `CN(C)/N=N/c1ccc2[nH]c(=O)[nH]c2c1`, the GI50 in test [1], in test [2], in test [20], in [3], in test [4] and in [5] was > 100 µM (inactive) in each case. The GI50 is above 100 µM in test [6]; > 100 µM (inactive) in test [7]; > 100 µM (inactive) in [9]; > 100 µM (inactive) in test [10]; > 100 µM (inactive) in test [11]; > 100 µM (inactive) in [12]. The GI50 in test [13], in [14], in [15], in test [16], in test [17] and in [18] was > 100 µM (inactive) each time. Besides, the GI50 in test [19] is > 100 µM (inactive).
Take `COc1cc2c(c(OC)c1OC)-c1ccc(SC)c(=O)cc1[C@@H](OC(=O)c1ccncc1)CC2`: the GI50 in test [1] is < 0.01 µM (active); in [2], 27 µM (inactive); in [3], < 0.01 µM (active); in test [4], < 0.01 µM (active); in test [5], < 0.01 µM (active); in test [6], below 0.01 µM. The GI50 in test [7], in [8], in test [9], in test [11], in test [12] and in test [13] was < 0.01 µM (active) in each case. The GI50 is > 61.7 µM (inactive) in test [14]; < 0.01 µM (active) in [15]; < 0.01 µM (active) in test [16]; < 0.01 µM (active) in [17]; < 0.01 µM (active) in test [18]; < 0.01 µM (active) in test [19].
